From US11602534B2, “Pyrimidine derivative kinase inhibitors” (HEFEI INSTITUTES OF PHYSICAL SCIENCE, CHINESE ACADEMY OF …, priority 2017, dated 2023)

Experiments:
BaF3 = assay: Proliferation of BaF3 cells, CCK8 cell viability assay; format: cell-based; details: Mus musculus, 72 hours
Summary of the method: (§1)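 GI50 (μM) from CCK8 read-out, which measures reductive dehydrogenase activity in living cells. Cells: parental mouse BaF3, or BaF3 stably expressing TEL-fused human cKIT, PDGFRα or PDGFRβ kinase domains and grown without IL-3, making them kinase-dependent.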

Tel-cKit-BaF3 = assay: Proliferation of Tel-cKit-BaF3 cells, CCK8 cell viability assay; format: cell-based, mouse; details: Mus musculus; 72 hours, CCK8; stably expressing cKIT kinase
Summary of the method: as §1

Tel-cKit/T670I-BaF3 = assay: Proliferation of Tel-cKit/T670I-BaF3 cells, CCK8 cell viability assay; format: cell-based; details: Mus musculus, 72 hours, stably expressing cKIT/T670I
Summary of the method: as §1

Tel-FLT3-BaF3 = assay: Proliferation of Tel-FLT3-BaF3 cells, CCK8 cell viability assay; format: cell-based; details: Mus musculus, 72 hours, stably expressing FLT3 kinase
Summary of the method: (§2)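 Murine BaF3 cells made IL-3-independent by retroviral transduction of human kinase domains fused to N-terminal TEL or TPR fragments; parental BaF3 included. Living cells quantified by CCK8 (dehydrogenase activity) read-out, giving GI50 in μM.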

FLT3-ITD-BaF3 = assay: Proliferation of FLT3-ITD-BaF3 cells, CCK8 cell viability assay; format: cell-based; details: Mus musculus, 72 hours, stably expressing FLT3/ITD
Summary of the method: as §2

TEL-PDGFRα-BaF3 = assay: Proliferation of TEL-PDGFRα-BaF3 cells, CCK8 cell viability assay; format: cell-based; details: Mus musculus, 72 hours, stably expressing PDGFRα kinase
Summary of the method: as §1

TEL-PDGFRβ-BaF3 = assay: Proliferation of TEL-PDGFRβ-BaF3 cells, CCK8 cell viability assay; format: cell-based; details: Mus musculus, 72 hours, stably expressing PDGFRβ kinase
Summary of the method: as §1

TEL-VEGFR2-BaF3 = assay: Proliferation of TEL-VEGFR2-BaF3 cells, CCK8 cell viability assay; format: cell-based; details: Mus musculus, 72 hours, stably expressing VEGFR2 kinase
Summary of the method: as §2

[1] = test system: human acute myeloid leukemia cell strain MOLM-13; assay: Proliferation of MOLM-13 cells, Cell Titer-Glo; format: cell-based; details: summary of Table 3
Protocol: (§3) In addition, in this example the inhibitory activity of preferred compounds (Compound 5 and Compound 135) was tested against the following cell strains: human acute myeloid leukemia cell strain MV4-11 (expressing FLT3/ITD mutant gene), human acute myeloid leukemia cell strain MOLM-13 (expressing FLT3/ITD mutant gene and wild-type FLT3 gene), human acute myeloid leukemia cell strain MOLM-14 (expressing FLT3/ITD mutant gene and wild-type FLT3 gene), human acute myeloid leukemia cell strain OCI-AML-3 (expressing FLT3 A680V mutant gene), human chronic lymphatic leukemia cell strain MEC-1, Chinese hamster lung (CHL) cells, Chinese hamster ovary (CHO) cells, wherein all the cells were purchased from ATCC. In the example the compounds of the present invention were added respectively into the above cells at different concentrations (0.000508 μM, 0.00152 μM, 0.00457 μM, 0.0137 μM, 0.0411 μM, 0.123 μM, 0.370 μM, 1.11 μM, 3.33 μM, 10 μM in DMSO) and the cells were incubated for 72 hours. The number of viable cells was determined by quantification of ATP in living cells using Cell Titer-Glo® (Promega, the USA) Luminescent Cell Viability Assay kit and thereby GI50 was calculated.

[2] = test system: human acute myeloid leukemia cell strain MV4-11; assay: Proliferation of MV4-11 cells, Cell Titer-Glo; format: cell-based; details: summary of Table 3
Protocol: as §3

[3] = test system: human acute myeloid leukemia cell strain MOLM-14; assay: Proliferation of MOLM-14 cells, Cell Titer-Glo; format: cell-based; details: summary of Table 3
Protocol: as §3

protein kinase FLT3 = assay: Phosphorylation of FLT3 in AML cells; format: cell-based, human; details: MV-4-11, MOLM-13 and MOLM-14 cell lines; 4 hours; compounds 0.01-3 μM, PKC412 1 μM
Protocol: (§4) In cells having FLT3 gene and/or FLT3/ITD mutant gene, specifically, human acute myeloid leukemia cells MV4-11 (expressing FLT3/ITD mutant gene) cell strain and human acute myeloid leukemia cells MOLM-13 and MOLM-14 (expressing FLT3/ITD mutant gene and wild-type FLT3 gene) cell strains, Compound 5, Compound 135 and a FLT3 kinase inhibitor, PKC412 (purchased from Hao Yuan Chemexpress Company, Shanghai), which was used as the control, were evaluated for their effects in cells on phosphorylation of FLT3 and FLT3/ITD protein kinase and phosphorylation of the closely-related STATS protein which is downstream of FLT3 signaling pathways, as well as their effects on phosphorylation of other relevant protein kinases such as ERK and AKT, by assaying a number of cellular biochemical and functional endpoints. In addition, the effects on C-Myc and phosphorylation of the transcription factor NF-κB subunit p65 was also examined (FIGS. 1a-1f). Compound 5 and Compound 135 at different concentrations (0 μM, 0.01 μM, 0.03 μM, 0.1 μM, 0.3 μM, 1 μM, 3 μM in DMSO) and the FLT3 kinase inhibitor PKC412 (1 μM in DMSO) were used to treat acute myeloid leukemia cells MV-4-11, MOLM13 and MOLM-14 that had FLT3 and/or FLT3/ITD gene for 4 hours, respectively, and then the samples were collected. The effects of the compounds on the phosphorylation of proteins such as STATS, C-Myc, ERK, NF-κB p65, AKT in cells were tested (FIGS. 1a-1f).

[4] = Phosphorylation of STATS downstream of FLT3 in AML cells; format: cell-based, human; details: MV-4-11, MOLM13 and MOLM-14; 4 hours; compounds 0.01-3 μM, PKC412 1 μM
Protocol: as §4

C-Myc = assay: Degradation of C-Myc in AML cells; format: cell-based, human; details: MV-4-11, MOLM13 and MOLM-14; 4 hours; compounds 0.01-3 μM, PKC412 1 μM
Protocol: as §4

GI50 (BaF3) [nM]	GI50 (Tel-cKit-BaF3) [nM]	GI50 (Tel-cKit/T670I-BaF3) [nM]	GI50 (Tel-FLT3-BaF3) [nM]	GI50 (FLT3-ITD-BaF3) [nM]	GI50 (TEL-PDGFRα-BaF3) [nM]	GI50 (TEL-PDGFRβ-BaF3) [nM]	GI50 (TEL-VEGFR2-BaF3) [nM]	Compound	inhibition of MOLM13 (in words) [1]	inhibition of MV4-11 (in words) [2]	inhibition of MOLM14 (in words) [3]	phosphorylation of the protein kinase FLT3 (protein kinase FLT3)	phosphorylation of STATS [4]	degradation of C-Myc (C-Myc)
> 10000	1420	8900	325	109	7	22	1090	CC(=O)Nc1cc(Oc2ccc(NC(=O)Cc3ccc(C(F)(F)F)cc3C(F)(F)F)cc2)ncn1 [Example 3, N-[4-(6-acetylamino-pyrimidin-4-yloxy)-phenyl]-2-(2,4-bis-trifluoromethyl-phenyl)-acetamide]	selectively and strongly inhibited	selectively and strongly inhibited	selectively and strongly inhibited	–	–	–
–	–	–	–	–	–	–	–	CO[C@@H]1[C@H](N(C)C(=O)c2ccccc2)C[C@H]2O[C@]1(C)n1c3ccccc3c3c4c(c5c6ccccc6n2c5c31)C(=O)NC4 [PKC412, reference compound]	–	–	–	strongly inhibited	strongly inhibited	strongly inhibited
